The text below walks through data of patent publication US10611733B2, “Quinazolinone analogs and use of quinazolinone analogs for treating or preventing certain viral infections” (priority 2011, dated 2020).

One series has as its target HCV Con1b (Replicon). Kind of series: HCV Con1b (Replicon) Luciferase end-point. Type of series: cell-based, Hepatitis C Virus. To be noted: for CC50: read-out: TC50 (the source's name).
A further series deals with WNV. Kind of series: WNV antiviral assay. The class given is cell-based, West Nile Virus. To be noted: for CC50: read-out: TC50 (the source's name). The text has this: The use of N-(2,3-dihydro-1H-inden-5-yl)-2-(4-oxo-3-phenyl-3,4-dihydroquinazolin-2-yl)thio) acetamide, a compound employed according to the present disclosure, for treating West Nile Virus has been disclosed. For example, please see Chung et al. A Cell Based Assay for the Identification of Lead Compounds with Anti-Viral Activity Against West Nile Virus, Probe Reports from the NIH Molecular Libraries Program[Internet]. Bethesda (Md.): National Center for Biotechnology Information (US); 2010-2010 Feb. 27 [updated 2010 Oct. 4], PMID: 21433390 [PubMed].

For `O=C(CSc1nc2ccccc2c(=O)n1-c1ccc(Cl)c(Cl)c1)Nc1ccc2c(c1)OCO2` [Example C19, N-(2H-benzo[d]1,3-dioxolen-5-yl)-2-[3-(3,4-dichlorophenyl)-4-oxo(3-hydroquinazolin-2-ylthio)]acetamide], on HCV Con1b (Replicon), the IC50 (commonly the concentration at which inhibition is half-maximal) lay in the range of 1 to 5 µM and the CC50 was at least 100 µM.
With `O=C(CSc1nc2c(F)cccc2c(=O)n1-c1ccc(Cl)c(Cl)c1)Nc1ccc2c(c1)CCC2` [Example C37, 2-[3-(3,4-dichlorophenyl)-8-fluoro-4-oxo(3-hydroquinazolin-2-ylthio)]-N-indan-5-ylacetamide], in the series on WNV, the IC50 is 5 to 25 µM and the CC50 is 10 to 50 µM.
In the same order, the values of `O=C(CSc1nc2ccccc2c(=O)n1-c1ccccc1F)Nc1ccc2c(c1)CCC2` [Example C11, 2-[3-(2-fluorophenyl)-4-oxo(3-hydroquinazolin-2-ylthio)]-N-indan-5-ylacetamide] are 5 to 25 µM and at least 100 µM.
Turning to `Cc1cccc2c(=O)n(-c3ccccc3)c(SCC(=O)Nc3ccc4c(c3)CCC4)nc12` [Example C16, N-indan-5-yl-2-(8-methyl-4-oxo-3-phenyl(3-hydroquinazolin-2-ylthio))acetamide], at HCV Con1b (Replicon), the IC50 lay within 1 to 5 µM and the CC50 was in the range of 10 to 50 µM.
Take `O=C(CSc1nc2cccc(F)c2c(=O)n1-c1cc(F)c(F)c(F)c1)Nc1ccc2c(c1)CCC2` [Example C30, 2-[5-fluoro-4-oxo-3-(3,4,5-trifluorophenyl)(3-hydroquinazolin-2-ylthio)]-N-indan-5-ylacetamide]: on HCV Con1b (Replicon), the IC50 lay within 1 to 5 µM and the CC50 is 50 to 100 µM.
Take `O=C(CSc1nc2ccccc2c(=O)n1-c1ccc(Cl)c(Cl)c1)Nc1cccc2c1CCC2` [Example C18, 2-[3-(3,4-dichlorophenyl)-4-oxo(3-hydroquinazolin-2-ylthio)]-N-indan-4-ylacetamide]: on HCV Con1b (Replicon), the IC50 fell in the range of 5 to 25 µM and the CC50 fell in the range of 50 to 100 µM.
As to `O=C(CSc1nc2ccccc2c(=O)n1-c1c(Cl)cccc1Cl)Nc1ccc2c(c1)CCC2` [Example C40, 2-[3-(2,6-dichlorophenyl)-4-oxo(3-hydroquinazolin-2-ylthio)]-N-indan-5-ylacetamide], in the series on WNV, the IC50 lay in the range of 5 to 25 µM and the CC50 was at least 100 µM.
With `O=C(CSc1nc2ccccc2c(=O)n1-c1ccc(F)c(Cl)c1)Nc1ccc2c(c1)OCO2` [Example C23, N-(2H-benzo[3,4-d]1,3-dioxolan-5-yl)-2-[3-(3-chloro-4-fluorophenyl)-4-oxo(3-hydroquinazolin-2-ylthio)]acetamide], on HCV Con1b (Replicon), the IC50 fell in the range of 5 to 25 µM and the CC50 is at least 100 µM.
As for `Cc1cc(-n2c(SCC(=O)Nc3ccc4c(c3)CCC4)nc3ccccc3c2=O)ccc1Cl` [Example C33, 2-[3-(4-chloro-3-methylphenyl)-4-oxo(3-hydroquinazolin-2-ylthio)]-N-indan-5-ylacetamide], in the series on WNV, the 50% inhibitory concentration (IC50) was 1 to 5 µM and the CC50 is 50 to 100 µM.
Regarding `Cc1ccc(-n2c(SCC(=O)Nc3ccc4c(c3)CCC4)nc3ccccc3c2=O)cc1Br` [Example C36, 2-[3-(3-bromo-4-methylphenyl)-4-oxo(3-hydroquinazolin-2-ylthio)]-N-indan-5-ylacetamide], in the series on WNV, the IC50 lay within 5 to 25 µM and the CC50 is at least 100 µM.
For the molecule `O=C(CSc1nc2ccccc2c(=O)n1-c1cc(F)c(F)c(F)c1)Nc1ccc2c(c1)CCC2` [Example C35, N-indan-5-yl-2-[4-oxo-3-(3,4,5-trifluorophenyl)(3-hydroquinazolin-2-ylthio)]acetamide], in the series with WNV, the IC50 fell in the range of 5 to 25 µM and the CC50 was at least 100 µM.
`O=C(CSc1nc2ccccc2c(=O)n1-c1ccc(Cl)c(Cl)c1)Nc1ccc2scnc2c1` [Example C46, N-benzothiazol-5-yl-2-[3-(3,4-dichlorophenyl)-4-oxo(3-hydroquinazolin-2-ylthio)]acetamide]: on HCV Con1b (Replicon), the IC50 is 1 to 5 µM and the CC50 is at least 100 µM.
Take `Cc1cc(-n2c(SCC(=O)Nc3ccc4c(c3)CCC4)nc3ccccc3c2=O)ccc1F` [Example C34, 2-[3-(4-fluoro-3-methylphenyl)-4-oxo(3-hydroquinazolin-2-ylthio)]-N-indan-5-ylacetamide]: in the series with WNV, the IC50 was in the range of 5 to 25 µM and the CC50 is at least 100 µM.
For `O=C(CSc1nc2cccc(F)c2c(=O)n1-c1ccccc1)NC1CCCc2ccccc21` (stereo not shown) [Example C28, 2-(5-fluoro-4-oxo-3-phenyl(3-hydroquinazolin-2-ylthio))-N-(1,2,3,4-tetrahydronaphthyl)acetamide], at HCV Con1b (Replicon), the half-maximal inhibitory concentration (IC50) lay within 5 to 25 µM and the CC50 was at least 100 µM.
Consider `O=C(CSc1nc2ccccc2c(=O)n1-c1cc(F)cc(F)c1)Nc1ccc2c(c1)CCC2` [Example C38, 2-[3-(3,5-difluorophenyl)-4-oxo(3-hydroquinazolin-2-ylthio)]-N-indan-5-ylacetamide], for which, in the series on WNV, the IC50 fell in the range of 5 to 25 µM and the CC50 was at least 100 µM.
In the case of `O=C(CSc1nc2ccccc2c(=O)n1-c1ccc(Cl)c(Br)c1)Nc1ccc2c(c1)CCC2` [Example C41, 2-[3-(3-bromo-4-chlorophenyl)-4-oxo(3-hydroquinazolin-2-ylthio)]-N-indan-5-ylacetamide], in the series on WNV, the IC50 was in the range of 5 to 25 µM and the CC50 is at least 100 µM.
On to `O=C(CCSc1nc2ccccc2c(=O)n1-c1ccc(F)c(Cl)c1)Nc1ccc2c(c1)CCC2` [Example C21, 3-[3-(3-chloro-4-fluorophenyl)-4-oxo(3-hydroquinazolin-2-ylthio)]-N-indan-5-ylpropanamide], for which, at HCV Con1b (Replicon), the IC50 lay within 5 to 25 µM and the CC50 lay in the range of 10 to 50 µM.
Consider `O=C(CSc1nc2c(F)cccc2c(=O)n1-c1ccccc1)Nc1ccc2c(c1)CCC2` [Example C42, 2-(8-fluoro-4-oxo-3-phenyl(3-hydroquinazolin-2-ylthio))-N-indan-5-ylacetamide], for which, in the series with WNV, the IC50 lay within 5 to 25 µM and the CC50 was at least 100 µM.
Consider `O=C(CSc1nc2ccccc2c(=O)n1-c1cc(Cl)cc(Cl)c1)Nc1ccc2c(c1)CCC2` [Example C20, 2-[3-(3,5-dichlorophenyl)-4-oxo(3-hydroquinazolin-2-ylthio)]-N-indan-5-ylacetamide], for which, in the series with WNV, the IC50 was 1 to 5 µM and the CC50 is at least 100 µM.
As for `O=C(CSc1nc2ccccc2c(=O)n1-c1ccc(F)c(Cl)c1)Nc1cccc2c1CCC2` [Example C22, 2-[3-(3-chloro-4-fluorophenyl)-4-oxo(3-hydroquinazolin-2-ylthio)]-N-indan-4-ylacetamide], on HCV Con1b (Replicon), the IC50 was 1 to 5 µM and the CC50 lay in the range of 10 to 50 µM.
`O=C(CSc1nc2ccccc2c(=O)n1-c1ccccc1)Nc1ccc2c(c1)CCC2` [Example C32, N-indan-5-yl-2-(4-oxo-3-phenyl(3-hydroquinazolin-2-ylthio))acetamide]: in the series on WNV, the IC50 was 5 to 25 µM and the CC50 is at least 100 µM.
For `O=C(CSc1nc2ccccc2c(=O)n1-c1cc(F)c(F)cn1)Nc1ccc2c(c1)CCC2` [Example C43, 2-[3-(4,5-difluoro(2-pyridyl))-4-oxo(3-hydroquinazolin-2-ylthio)]-N-indan-5-ylacetamide], in the series with WNV, the IC50 lay in the range of 5 to 25 µM and the CC50 is at least 100 µM.
For the molecule `O=C(CSc1nc2cccc(F)c2c(=O)n1-c1ccc(Cl)c(F)c1)Nc1ccc2c(c1)CCC2` [Example C29, 2-[3-(4-chloro-3-fluorophenyl)-5-fluoro-4-oxo(3-hydroquinazolin-2-ylthio)]-N-indan-5-ylacetamide], at HCV Con1b (Replicon), the IC50 lay in the range of 1 to 5 µM and the CC50 is at least 100 µM.
